The target in experiment [1] is T1, IL-17A(FLAG-Tagged): IL-17RA(His-Tagged) (Homo sapiens, UniProt Q16552, K93Q). Briefly: IL-17A(FLAG-tagged):IL-17RA(His-tagged) binding disruption Eu-HTRF assay, Protocol 1. Conditions: FLAG tagged IL-17A at 2× final concentration (2.5 nM); simple average if tested more than once. The source says: (§1) IL-17A(FLAG-Tagged): IL-17RA(His-Tagged) Binding Disruption Eu-HTRF Assay
(§2) An antibody directed against the FLAG tag of IL-17A (SEQ ID NO:1) is labeled with the HTRF donor chromophore (Europium-cryptate). IL-17A is present as a dimer that is “locked into” this quaternary structure due to the formation of loop-spanning […] disulfide bridges. The construct of IL-17RA used in the assay excludes the outer-membrane portion of the receptor and is fused to a C-terminal 10×His tag (SEQ ID NO:2). An antibody directed against the His tag of the IL-17RA chimera is labeled with the HTRF acceptor chromophore (“D2”). The fluorescence-resonance energy transfer (FRET) depends on the vicinity of the donor chromophore to the acceptor, and interruption of the binding between the IL-17A and IL-17RA causes the reduction/loss of FRET. Therefore, this assay allows to evaluate the compound effect on the binding IL-17A and IL-17RA by monitoring the fluorescence intensity of donor vs acceptor. The assay was run using either Protocol 1 or Protocol 2 described below.
(§3) Protocol 1: 40 nL of 2-fold serial diluted compound solution for total 22 dilution points is added into each well of a 1536-well, white, low-volume, non-binding plate (Greiner #782904), then 2 μl of FLAG tagged IL-17A at 2× final concentration (2.5 nM) in solution of PBS+0.01% Triton-X100 is added to each well. The assay plate is briefly centrifuged then incubated for 1 h at rt. A mixed solution is prepared containing 2×5 nM 10HIS×IL-17RA, 2×2.5 nM Eu-anti-FLAG (CISBIO), 2×5 nM D2-anti-HIS (CISBIO) in PBS+0.01% Triton-X100+200 mM Potassium Fluoride (Sigma 60238) and […] of mix is added to each well of the assay plate. The plate is briefly centrifuged then incubated for 2 h at rt. The HTRF intensities at the wavelength of donor (620 nm) and acceptor (665 nm) are measured using BMG Pherastar. The ratio between intensities at two wavelengths is calculated and plotted against the compound concentration and the data is fitted to a one-site competition model to yield IC50 of the compound.
In general terms: In TR-FRET formats the signal depends on donor and acceptor labels being close together.

Experiment [2] has as its system IL-17A-induced G-CSF production in human normal keratinocyte (NHK). Briefly: NHK assay: IL-17A-induced G-CSF production in normal human keratinocytes. The following applies: Homo sapiens, Keratinocyte; IL-17A 5 ng/mL, 24 h at 37° C., G-CSF by HTRF; simple average if tested more than once. Format: cell-based. The method in brief:
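IC50 derives from G-CSF in supernatants, quantified by HTRF from a standard curve, with CellTiter-Glo viability compared to DMSO control. Before a 24 h, 37°C culture of normal human keratinocytes at 3000–4000 cells/well, compound dilutions were preincubated 1 h at rt with human IL-17A (5 ng/mL final), with 0.2% DMSO and 5% FBS.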

Experiment [3] addresses T1, IL-17A(FLAG-Tagged): IL-17RA(His-Tagged). Put plainly: IL-17A(FLAG-tagged):IL-17RA(His-tagged) binding disruption Eu-HTRF assay, Protocol 2. Conditions: FLAG tagged IL-17A at 2× final concentration (1 nM); simple average if tested more than once.
Description: as §1, §2
as §3, with “2.” for “1:”, “nl” for “nL”, “(1” for “(2.5”, “(615” for “(620”

For experiment [4] the following is noted: moderate-to-severe HS, seven of nine patients, open-label pilot-trial; cited from earlier work.

Results on two compounds are retold here after patent US12215111B2, “Imidazopyridazine IL-17 inhibitor compounds” (Janssen Pharmaceutica NV, priority 2021, dated 2025).

A word on the IC50: it is the concentration needed to halve the response being measured.

T1 sequence (Q16552 with tags, fused parts or gaps K93Q): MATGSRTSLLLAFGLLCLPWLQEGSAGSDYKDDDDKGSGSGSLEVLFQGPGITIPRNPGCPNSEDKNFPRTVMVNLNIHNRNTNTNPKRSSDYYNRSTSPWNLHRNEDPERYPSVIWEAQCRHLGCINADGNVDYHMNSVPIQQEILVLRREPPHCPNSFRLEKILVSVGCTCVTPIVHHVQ

`O=C(N[C@H](c1cn2ncc(CN3C(=O)N[C@@H]4CC(F)(F)C[C@@H]43)cc2n1)C1CCC(F)(F)CC1)c1nonc1C1CC1` (single isomer, unassigned) [Example 7, 4-Cyclopropyl-N—((S)-(7-(((3aR*,6aS*)-5,5-difluoro-2-oxohexahydrocyclopenta[d]imidazol-1(2H)-yl)methyl)imidazo[1,2-b]pyridazin-2-yl)(4,4-difluorocyclohexyl)methyl)-1,2,5-oxadiazole-3-carboxamide]: the IC50 in experiment [1], in experiment [2] and in experiment [3] was < 4 µM in each case.

On to secukinumab, for which the “patients who achieved HiSCR” value in experiment [4] is reported as 78%.
